Source: patent publication US20240327430A1 (Breakpoint Therapeutics GmbH, priority 2023, published 2024)

Molecular target: truncated Polθ protein (Polθ-Hel containing the helicase domain (67-894)) (Homo sapiens (Human), UniProt O75417)
Assay: Polθ ATPase assay (Biological Assay 1, ADP-Glo luminescence)
Assay type: biochemical
Conditions: Polθ-Hel 0.5 nM, DNA substrate 500 nM, ATP 60 μM, 23° C.; read-out: Pole ATPase assay IC50
Method: The Polθ ATPase assay was used to evaluate inhibitors of Polθ ATPase activity, in vitro. Experiments were performed using a truncated Polθ protein (Polθ-Hel containing the helicase domain (67-894), ATP and a DNA single strand Oligo (5′-CTGTCCTGCATGATG-3′) in the Polθ assay buffer (20 mM Tis-HCl (pH 8.8), MgCl2 5 mM, tween20 0.01%, NP40 0.01%, BSA 0.01%, DTT 1 mM). 2 μL of assay buffer containing Pole-Hel protein (0.5 nM) and DNA substrate (500 nM) was transferred into assay ready plates, containing 0.04 μL of compounds diluted in DMSO. After a 30 minutes incubation at 23° C. in the dark, the reaction was triggered by adding 2 μL of ATP (60 μM), in assay buffer. After 60 minutes at 23° C., 4 μl of ADP-Glo™ Reagent (Glo 1) was added followed by 40 minutes of incubation, then 8 μl of ADP-Glom kinase Detection Reagent (Glo 2) followed by 60 minutes of incubation at 23° C. Luminescence was then measured using Tecan F200 infinite plate reader. Raw data were analysed using GeneData to generate IC50 values.
The Polθ ATPase assay described in Biological Assay 1 above was used to evaluate inhibitors of Polθ ATPase activity for the compounds described in the Experimental Part B above, in vitro.

Sequence of truncated Polθ protein (Polθ-Hel containing the helicase domain (67-894)) (O75417 67-894): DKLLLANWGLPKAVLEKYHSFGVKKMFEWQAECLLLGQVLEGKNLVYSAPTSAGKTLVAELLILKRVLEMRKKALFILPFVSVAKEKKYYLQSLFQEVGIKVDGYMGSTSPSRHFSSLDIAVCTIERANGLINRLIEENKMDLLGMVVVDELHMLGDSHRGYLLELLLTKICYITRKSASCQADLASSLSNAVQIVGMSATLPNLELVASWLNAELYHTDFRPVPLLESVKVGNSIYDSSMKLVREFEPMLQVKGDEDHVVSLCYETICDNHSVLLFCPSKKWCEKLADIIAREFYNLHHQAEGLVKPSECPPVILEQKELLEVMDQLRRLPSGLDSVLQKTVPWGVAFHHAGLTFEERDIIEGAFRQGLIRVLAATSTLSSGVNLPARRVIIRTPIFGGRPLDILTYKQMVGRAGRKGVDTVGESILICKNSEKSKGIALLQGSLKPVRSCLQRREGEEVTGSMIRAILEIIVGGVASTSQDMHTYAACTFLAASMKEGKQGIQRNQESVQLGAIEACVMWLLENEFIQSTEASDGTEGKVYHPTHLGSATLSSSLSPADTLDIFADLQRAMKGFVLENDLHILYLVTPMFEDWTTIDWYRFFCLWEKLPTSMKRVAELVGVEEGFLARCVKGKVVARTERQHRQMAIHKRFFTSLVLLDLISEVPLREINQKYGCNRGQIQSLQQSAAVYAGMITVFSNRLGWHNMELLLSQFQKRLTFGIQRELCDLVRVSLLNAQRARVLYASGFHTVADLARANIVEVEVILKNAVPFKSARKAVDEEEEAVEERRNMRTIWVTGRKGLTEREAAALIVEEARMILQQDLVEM

| IC50 [nM] | SMILES |
| --- | --- |
| < 100 | COc1cnc(Cl)cc1-c1cc(C)ncc1C(=O)Nc1nc2ccc(N3CCNC3=O)cc2s1 [Example 60, 2′-chloro-5′-methoxy-6-methyl-N-[6-(2-oxoimidazolidin-1-yl)-1,3-benzothiazol-2-yl]-[4,4′-bipyridine]-3-carboxamide] |
| < 100 | COc1cnc(Cl)cc1-c1cc(C)ncc1C(=O)Nc1nc2cnc(N3CCCCC3=O)cc2s1 [Example 61, 2′-chloro-5′-methoxy-6-methyl-N-[6-(2-oxopiperidin-1-yl)-[1,3]thiazolo[4,5-c]pyridin-2-yl]-[4,4′-bipyridine]-3-carboxamide] |
| < 100 | COc1cnc(Cl)cc1-c1cc(C)ncc1C(=O)Nc1nc2cnccc2s1 [Example 62, 2′-chloro-5′-methoxy-6-methyl-N-{[1,3]thiazolo[4,5-c]pyridin-2-yl}-[4,4′-bipyridine]-3-carboxamide] |
| < 100 | COc1cnc(Cl)cc1-c1cc(C)ncc1C(=O)Nc1nc2cc(Cl)ncc2s1 [Example 63, 2′-chloro-N-{6-chloro-[1,3]thiazolo[5,4-c]pyridin-2-yl}-5′-methoxy-6-methyl-[4,4′-bipyridine]-3-carboxamide] |
| < 100 | COc1cnc(Cl)cc1-c1cc(C)ncc1C(=O)Nc1nc2cnc(Cl)cc2s1 [Example 64, 2′-chloro-N-{6-chloro-[1,3]thiazolo[4,5-c]pyridin-2-yl}-5′-methoxy-6-methyl-[4,4′-bipyridine]-3-carboxamide] |
| < 100 | COc1cnc(Cl)cc1-c1cc(C)ncc1C(=O)Nc1nc2ccc(S(=O)(=O)N(C)C)cc2s1 [Example 66, 2′-chloro-N-[6-(dimethylsulfamoyl)-1,3-benzothiazol-2-yl]-5′-methoxy-6-methyl-[4,4′-bipyridine]-3-carboxamide] |
| < 100 | COc1cnc(Cl)cc1-c1cc(C)ncc1C(=O)Nc1nc2ncc(N3CCOCC3)cc2s1 [Example 67, 2′-chloro-5′-methoxy-6-methyl-N-[6-(morpholin-4-yl)-[1,3]thiazolo[4,5-b]pyridin-2-yl]-[4,4′-bipyridine]-3-carboxamide] |
| < 100 | COc1cnc(Cl)cc1-c1cc(C)ncc1C(=O)Nc1nc2ccccc2s1 [Example 69, N-(1,3-benzothiazol-2-yl)-2′-chloro-5′-methoxy-6-methyl-[4,4′-bipyridine]-3-carboxamide] |
| < 100 | COc1cnc(Cl)cc1-c1cc(C)ncc1C(=O)Nc1nc2ncc(N3CCCCC3=O)cc2s1 [Example 70] |
| < 100 | COc1cnc(Cl)cc1-c1cc(C)ncc1C(=O)Nc1nc2ncc(N3CCC(O)CC3)cc2s1 [Example 71, 2′-chloro-N-[6-(4-hydroxypiperidin-1-yl)-[1,3]thiazolo[4,5-b]pyridin-2-yl]-5′-methoxy-6-methyl-[4,4′-bipyridine]-3-carboxamide] |
| < 100 | COc1ncc2nc(NC(=O)c3cnc(C)cc3-c3cc(Cl)ncc3OC)sc2n1 [Example 75, 2′-chloro-5′-methoxy-N-{5-methoxy-[1,3]thiazolo[5,4-d]pyrimidin-2-yl}-6-methyl-[4,4′-bipyridine]-3-carboxamide] |
| < 100 | COc1cnc(Cl)cc1-c1cc(C)ncc1C(=O)Nc1nc2cnc(N3CCC4(COC4)C3)nc2s1 [Example 76, 2′-chloro-5′-methoxy-6-methyl-N-(5-{2-oxa-6-azaspiro[3.4]octan-6-yl}-[1,3]thiazolo[5,4-d]pyrimidin-2-yl)-[4,4′-bipyridine]-3-carboxamide] |
| < 100 | COc1cnc(Cl)cc1-c1cc(C)ncc1C(=O)Nc1nc2cnc(NCC(C)(C)O)nc2s1 [Example 77, 2′-chloro-N-{5-[(2-hydroxy-2-methylpropyl)amino]-[1,3]thiazolo[5,4-d]pyrimidin-2-yl}-5′-methoxy-6-methyl-[4,4′-bipyridine]-3-carboxamide] |
| < 100 | COc1cnc(Cl)cc1-c1cc(C)ncc1C(=O)Nc1nc2cnc(NCC(C)C)nc2s1 [Example 78, 2′-chloro-5′-methoxy-6-methyl-N-{5-[(2-methylpropyl)amino]-[1,3]thiazolo[5,4-d]pyrimidin-2-yl}-[4,4′-bipyridine]-3-carboxamide] |
| < 100 | COc1cnc(Cl)cc1-c1cc(C)ncc1C(=O)Nc1nc2cnc(NC3CCC3)nc2s1 [Example 79, 2′-chloro-N-[5-(cyclobutylamino)-[1,3]thiazolo[5,4-d]pyrimidin-2-yl]-5′-methoxy-6-methyl-[4,4′-bipyridine]-3-carboxamide] |
| < 100 | COc1cnc(Cl)cc1-c1cc(C)ncc1C(=O)Nc1nc2cnc(N3CCC(OC)CC3)nc2s1 [Example 80, 2′-chloro-5′-methoxy-N-[5-(4-methoxypiperidin-1-yl)-[1,3]thiazolo[5,4-d]pyrimidin-2-yl]-6-methyl-[4,4′-bipyridine]-3-carboxamide] |
| < 100 | COc1cnc(Cl)cc1-c1cc(C)ncc1C(=O)Nc1nc2cnc(N3CC4(CC(O)C4)C3)nc2s1 [Example 81, 2′-chloro-N-(5-{6-hydroxy-2-azaspiro[3.3]heptan-2-yl}-[1,3]thiazolo[5,4-d]pyrimidin-2-yl)-5′-methoxy-6-methyl-[4,4′-bipyridine]-3-carboxamide] |
| < 100 | COc1cnc(Cl)cc1-c1cc(C)ncc1C(=O)Nc1nc2cnc(N3CC4(CCOC4)C3)nc2s1 [Example 82, 2′-chloro-5′-methoxy-6-methyl-N-(5-{6-oxa-2-azaspiro[3.4]octan-2-yl}-[1,3]thiazolo[5,4-d]pyrimidin-2-yl)-[4,4′-bipyridine]-3-carboxamide] |
| < 100 | COc1cnc(Cl)cc1-c1cc(C)ncc1C(=O)Nc1nc2ccc(S(C)(=N)=O)cc2s1 (stereo not shown) [Example 83, 2′-chloro-N-{6-[imino(methyl)oxo-λ^6-sulfanyl]-1,3-benzothiazol-2-yl}-5′-methoxy-6-methyl-[4,4′-bipyridine]-3-carboxamide] |
| < 100 | COc1cnc(Cl)cc1-c1cc(C)ncc1C(=O)Nc1nc2ccc(N3CCCS3(=O)=O)cc2s1 [Example 84] |
| < 100 | COc1cnc(Cl)cc1-c1cc(C)ncc1C(=O)Nc1nc2ccc(N3CC[C@@H](O)CC3=O)cc2s1 [Example 85, 2′-chloro-N-{6-[(4R)-4-hydroxy-2-oxopiperidin-1-yl]-1,3-benzothiazol-2-yl}-5′-methoxy-6-methyl-[4,4′-bipyridine]-3-carboxamide] |

| SMILES | IC50 [nM] |
| --- | --- |
| COc1cnc(Cl)cc1-c1cc(C)ncc1C(=O)Nc1nc2cnc(N3CCOCC3)cc2s1 [Example 65, 2′-chloro-5′-methoxy-6-methyl-N-[6-(morpholin-4-yl)-[1,3]thiazolo[4,5-c]pyridin-2-yl]-[4,4′-bipyridine]-3-carboxamide] | < 100 |
| COc1cnc(Cl)cc1-c1cc(C)ncc1C(=O)Nc1nc2ccc(N3CCOCC3)nc2s1 [Example 72, 2′-chloro-5′-methoxy-6-methyl-N-[5-(morpholin-4-yl)-[1,3]thiazolo[5,4-b]pyridin-2-yl]-[4,4′-bipyridine]-3-carboxamide] | < 100 |
| COc1cnc(Cl)cc1-c1cc(C)ncc1C(=O)Nc1nc2ccc(N3CCCCC3=O)nc2s1 [Example 73, 2′-chloro-5′-methoxy-6-methyl-N-[5-(2-oxopiperidin-1-yl)-[1,3]thiazolo[5,4-b]pyridin-2-yl]-[4,4′-bipyridine]-3-carboxamide] | < 100 |
| COc1cnc(Cl)cc1-c1cc(C)ncc1C(=O)Nc1nc2ccc(N3CCC(O)CC3)nc2s1 [Example 74, 2′-chloro-N-[5-(4-hydroxypiperidin-1-yl)-[1,3]thiazolo[5,4-b]pyridin-2-yl]-5′-methoxy-6-methyl-[4,4′-bipyridine]-3-carboxamide] | < 100 |
